The values that follow come from PMC11066006, “Discovery of active mouse, plant and fungal cytochrome P450s in endogenous proteomes and upon expression in planta” (Scientific Reports, 2024).

Common to all, as to assay type: biochemical
One assay has as its target T1, ZmCYP81A9 (Zea mays, UniProt A0A804P7U7).
T1 construct: untagged as described; codon-optimised ORF in pYES3, microsomes of Saccharomyces cerevisiae WAT11
T1 sequence (A0A804P7U7 with tags, fused parts or gaps): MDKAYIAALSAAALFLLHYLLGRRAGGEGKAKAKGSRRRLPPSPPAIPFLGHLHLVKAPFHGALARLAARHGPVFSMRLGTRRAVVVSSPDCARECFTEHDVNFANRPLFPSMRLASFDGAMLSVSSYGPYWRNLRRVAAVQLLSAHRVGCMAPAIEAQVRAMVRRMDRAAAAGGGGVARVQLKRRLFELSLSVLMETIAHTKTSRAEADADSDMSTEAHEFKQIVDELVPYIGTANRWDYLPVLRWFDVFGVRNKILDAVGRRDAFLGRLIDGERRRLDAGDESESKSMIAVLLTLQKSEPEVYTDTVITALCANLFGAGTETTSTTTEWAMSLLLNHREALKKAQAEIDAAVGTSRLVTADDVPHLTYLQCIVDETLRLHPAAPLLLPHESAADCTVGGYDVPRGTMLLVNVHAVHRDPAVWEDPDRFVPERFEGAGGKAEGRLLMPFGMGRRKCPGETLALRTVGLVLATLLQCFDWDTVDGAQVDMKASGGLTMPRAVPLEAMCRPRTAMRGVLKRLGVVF
In words: hydroxylation monitored by LC-MS. Particulars: yeast microsomes, 200 μM bentazone, 1 mM NADPH, pH 7.5, 28 °C, 2 h.

In the next assay the target is T2, ZtCYP539A6 (Zymoseptoria tritici, UniProt F9XDL6).
T2 construct: gene CYP-30; native, microsomes of Z. tritici cell cultures, identified by MS; also expressed as C-terminal GFP fusion in N. benthamiana
T2 sequence (F9XDL6 1-542): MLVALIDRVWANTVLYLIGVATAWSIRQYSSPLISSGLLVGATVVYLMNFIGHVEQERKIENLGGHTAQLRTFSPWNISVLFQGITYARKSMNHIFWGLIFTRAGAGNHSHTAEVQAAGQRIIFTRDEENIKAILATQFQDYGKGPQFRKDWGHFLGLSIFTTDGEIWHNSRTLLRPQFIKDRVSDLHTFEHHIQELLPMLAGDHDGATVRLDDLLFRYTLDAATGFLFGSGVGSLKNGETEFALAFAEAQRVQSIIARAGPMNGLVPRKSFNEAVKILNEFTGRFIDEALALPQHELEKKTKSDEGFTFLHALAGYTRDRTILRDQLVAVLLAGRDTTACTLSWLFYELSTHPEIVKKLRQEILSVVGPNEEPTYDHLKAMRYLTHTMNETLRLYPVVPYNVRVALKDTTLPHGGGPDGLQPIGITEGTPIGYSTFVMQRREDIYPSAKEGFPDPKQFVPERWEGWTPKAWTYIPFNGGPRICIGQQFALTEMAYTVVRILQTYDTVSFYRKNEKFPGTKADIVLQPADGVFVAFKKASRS
In words: activity-based labeling, streptavidin pull-down LC-MS/MS. Particulars: 30 μM probe, 1 mM NADPH, 1 h, native Z. tritici microsomes; covalent.

For a further assay, the target named is T3, ZtCYP52R1 (Zymoseptoria tritici, UniProt F9XML6).
T3 construct: gene CYP-29; native, microsomes of Z. tritici cell cultures, identified by MS; also expressed as C-terminal GFP fusion in N. benthamiana
T3 sequence (F9XML6 1-521): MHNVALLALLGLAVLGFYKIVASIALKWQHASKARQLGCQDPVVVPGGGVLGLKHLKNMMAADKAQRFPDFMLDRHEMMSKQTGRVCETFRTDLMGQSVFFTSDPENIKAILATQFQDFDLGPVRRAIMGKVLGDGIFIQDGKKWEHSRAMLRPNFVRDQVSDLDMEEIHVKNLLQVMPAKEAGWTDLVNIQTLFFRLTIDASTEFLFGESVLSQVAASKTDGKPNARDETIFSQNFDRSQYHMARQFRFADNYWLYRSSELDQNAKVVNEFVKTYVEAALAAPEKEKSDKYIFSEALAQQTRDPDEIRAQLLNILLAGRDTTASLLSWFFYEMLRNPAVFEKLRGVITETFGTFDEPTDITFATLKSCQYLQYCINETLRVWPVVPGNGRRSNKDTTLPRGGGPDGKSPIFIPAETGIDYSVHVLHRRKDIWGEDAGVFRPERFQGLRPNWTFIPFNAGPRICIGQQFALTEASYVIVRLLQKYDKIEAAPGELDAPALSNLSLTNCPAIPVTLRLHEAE
The description is as above. Particulars: 30 μM probe, 1 mM NADPH, 1 h, native Z. tritici microsomes; covalent.

Assay [1] addresses T4, ZmCYP81A9-GFP (Zea mays, UniProt A0A804P7U7).
T4 construct: C-terminal GFP fusion, codon-optimised, agroinfiltrated Nicotiana benthamiana leaf microsomes
T4 sequence (A0A804P7U7 with tags, fused parts or gaps): T1 sequence (A0A804P7U7 with tags, fused parts or gaps)
As to the kind of experiment: activity-based labeling, in-gel fluorescence; streptavidin pull-down LC-MS/MS. Particulars: 10 μM probe, 1 mM NADPH, 1.5 h, leaf microsomes; covalent.

For another assay, the target named is T5, MmCyp1a2-GFP (Mus musculus, UniProt P00186).
T5 construct: gene Cyp1a2; C-terminal GFP fusion, 82 kDa, codon-optimised, agroinfiltrated Nicotiana benthamiana leaf microsomes
T5 sequence (P00186 2-513): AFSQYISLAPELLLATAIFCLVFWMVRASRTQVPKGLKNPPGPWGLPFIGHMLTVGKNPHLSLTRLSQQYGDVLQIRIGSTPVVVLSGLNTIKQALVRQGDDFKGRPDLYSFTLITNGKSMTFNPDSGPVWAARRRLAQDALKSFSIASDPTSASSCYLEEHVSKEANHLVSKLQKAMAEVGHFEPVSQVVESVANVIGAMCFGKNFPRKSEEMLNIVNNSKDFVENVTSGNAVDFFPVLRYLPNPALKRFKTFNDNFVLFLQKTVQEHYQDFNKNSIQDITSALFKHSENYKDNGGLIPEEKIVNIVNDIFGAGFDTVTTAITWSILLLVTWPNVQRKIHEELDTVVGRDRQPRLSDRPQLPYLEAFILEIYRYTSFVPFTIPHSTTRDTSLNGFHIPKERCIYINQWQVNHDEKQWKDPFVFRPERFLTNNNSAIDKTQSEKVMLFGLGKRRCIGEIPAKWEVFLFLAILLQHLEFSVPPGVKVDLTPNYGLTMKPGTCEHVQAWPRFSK
In words: activity-based labeling, click chemistry, in-gel fluorescence. The following applies: 10 μM probe, 1 mM NADPH, 1.5 h, leaf microsomes; covalent.

Assay [2] deals with T4, ZmCYP81A9-GFP. In words: activity-based labeling, streptavidin pull-down LC-MS/MS. Particulars: 10 μM probe, 1 mM NADPH, 1.5 h, leaf microsomes; covalent.
Assay [3] addresses T4, ZmCYP81A9-GFP. In words: activity-based labeling, click chemistry, in-gel fluorescence. Particulars: 10 μM probe, 1 mM NADPH, 1.5 h, leaf microsomes; covalent.

On to `CC(C)N1C(=O)c2ccccc2NS1(=O)=O` [bentazone], for which the “hydroxylation monitored by LC-MS” value on ZmCYP81A9 was “used to monitor the conversion of bentazone, leading to hydroxybentazone”.

For `C#CCCCCNC(=O)c1ccc(C#C)cc1` [DB096], the “activity-based labeling, streptavidin pull-down LC-MS/MS” value on ZtCYP539A6 is “amongst the DB096-enriched proteins: ZtCYP52R1, ZtCYP539A6, ZtCYP5078B1 and ZtCYP5080H1”; on ZtCYP52R1, “amongst the DB096-enriched proteins: ZtCYP52R1, ZtCYP539A6, ZtCYP5078B1 and ZtCYP5080H1”. Besides, at ZmCYP81A9-GFP [1], the “activity-based labeling, in-gel fluorescence; streptavidin pull-down LC-MS/MS” value was “NADPH-dependent fluorescent signal for DB086 and DB096”. For the same compound, the “activity-based labeling, click chemistry, in-gel fluorescence” value on MmCyp1a2-GFP is “tested these for labeling with DB086 and DB096”.

As for `C#CCCCCNC(=O)C1=Cc2ccc(C#C)cc2CC1` [DB088], the “activity-based labeling, streptavidin pull-down LC-MS/MS” value on ZmCYP81A9-GFP [2] was “confirming that ZmCYP81A9-GFP is labeled by both DB088 and DB096”.

Turning to `C#CCCCCNC(=O)c1cc2ccc(C#C)cc2oc1=O` [DB086], the “activity-based labeling, click chemistry, in-gel fluorescence” value was “NADPH-dependent fluorescent signal for DB086 and DB096” at ZmCYP81A9-GFP [3]; “tested these for labeling with DB086 and DB096” on MmCyp1a2-GFP.
